Results: the supplement of paper PMC10307832

How the values were obtained:
Test in all cases: relative viability (nuclei count vs DMSO), 5 days (fraction); higher = more cells survive
EKVX = system: EKVX
How it was run: (§1)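 Relative viability is defined as nuclei in treated wells over nuclei in vehicle wells. Duplicate plates were run and medians reported. Lung cancer cell lines in 1536-well plates were dosed by pin tool one day after seeding, with one drug or with a fixed anchor-drug dose plus five library-drug doses (not always all listed) in √10 steps, and nuclei were counted after 5 days.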

EMC-BAC-2 = system: EMC-BAC-2
How it was run: as §1

PC-14 = system: PC-14
How it was run: as §1

COR-L 105 = system: COR-L 105
How it was run: as §1

A-427 = system: A-427
How it was run: as §1

BEN = system: BEN
How it was run: as §1

SK-MES-1 = system: SK-MES-1
How it was run: as §1

HOP-62 = system: HOP-62
How it was run: as §1

NCI-H661 = system: NCI-H661
How it was run: as §1

NCI-H1915 = system: NCI-H1915
How it was run: as §1

201T = system: 201T
How it was run: as §1

Compound `CCNC(=O)c1noc(-c2cc(C(C)C)c(O)cc2O)c1-c1ccc(CN2CCOCC2)cc1` [Luminespib] + COc1cc2c(Oc3ccc(NC(=O)C4(C(=O)Nc5ccc(F)cc5)CC4)cc3F)ccnc2cc1OCCCN1CCOCC1 [Foretinib] (partner 0.25 µM) has a relative viability (EKVX; first compound 0.002 µM) of 0.75, a relative viability (EKVX; first compound 0.006325 µM) of 0.453 and a relative viability (EKVX; first compound 0.06325 µM) of 0.815. For the same compound, the relative viability (EKVX; first compound 0.2 µM) was 0.108, the relative viability (EMC-BAC-2; first compound 0.002 µM) was 1.03 and the relative viability (EMC-BAC-2; first compound 0.006325 µM) was 0.936. The relative viability (EMC-BAC-2; first compound 0.02 µM) was 0.942, the relative viability (EMC-BAC-2; first compound 0.06325 µM) was 0.915 and the relative viability (EMC-BAC-2; first compound 0.2 µM) was 0.56. For the same compound, the relative viability (PC-14; first compound 0.002 µM) was 0.967, the relative viability (PC-14; first compound 0.006325 µM) was 0.882 and the relative viability (PC-14; first compound 0.02 µM) was 0.945. For the same compound, the relative viability (PC-14; first compound 0.06325 µM) was 0.567, the relative viability (PC-14; first compound 0.2 µM) was 0.125 and the relative viability (COR-L 105; first compound 0.002 µM) was 0.885. It also gave a relative viability (COR-L 105; first compound 0.006325 µM) of 1.04, a relative viability (COR-L 105; first compound 0.02 µM) of 1.07 and a relative viability (COR-L 105; first compound 0.06325 µM) of 0.436. The relative viability (COR-L 105; first compound 0.2 µM) was 0.273, the relative viability (A-427; first compound 0.002 µM) was 1.14 and the relative viability (A-427; first compound 0.006325 µM) was 0.969. The relative viability (A-427; first compound 0.02 µM) was 0.84, the relative viability (A-427; first compound 0.06325 µM) was 1.06 and the relative viability (A-427; first compound 0.2 µM) was 1.1. It also gave a relative viability (BEN; first compound 0.002 µM) of 0.63, a relative viability (BEN; first compound 0.006325 µM) of 0.71 and a relative viability (BEN; first compound 0.02 µM) of 0.362. The relative viability (BEN; first compound 0.06325 µM) was 0.531, the relative viability (BEN; first compound 0.2 µM) was 0.222 and the relative viability (SK-MES-1; first compound 0.002 µM) was 0.829. For the same compound, the relative viability (SK-MES-1; first compound 0.006325 µM) was 0.804, the relative viability (SK-MES-1; first compound 0.02 µM) was 0.777 and the relative viability (SK-MES-1; first compound 0.06325 µM) was 0.138. For the same compound, the relative viability (SK-MES-1; first compound 0.2 µM) was 0.156, the relative viability (HOP-62; first compound 0.002 µM) was 1.09 and the relative viability (HOP-62; first compound 0.006325 µM) was 1.11. The relative viability (HOP-62; first compound 0.02 µM) was 1.17, the relative viability (HOP-62; first compound 0.06325 µM) was 0.587 and the relative viability (HOP-62; first compound 0.2 µM) was 0.145. It also gave a relative viability (NCI-H661; first compound 0.002 µM) of 1.11, a relative viability (NCI-H661; first compound 0.006325 µM) of 0.992 and a relative viability (NCI-H661; first compound 0.02 µM) of 0.922. For the same compound, the relative viability (NCI-H661; first compound 0.06325 µM) was 0.597, the relative viability (NCI-H661; first compound 0.2 µM) was 0.301 and the relative viability (NCI-H1915; first compound 0.002 µM) was 1.13. For the same compound, the relative viability (NCI-H1915; first compound 0.006325 µM) was 1.04, the relative viability (NCI-H1915; first compound 0.02 µM) was 1.02 and the relative viability (NCI-H1915; first compound 0.06325 µM) was 1.05. The relative viability (NCI-H1915; first compound 0.2 µM) was 0.826, the relative viability (201T; first compound 0.002 µM) was 1.06 and the relative viability (201T; first compound 0.006325 µM) was 1.07. For the same compound, the relative viability (201T; first compound 0.02 µM) was 1.08, the relative viability (201T; first compound 0.06325 µM) was 0.173 and the relative viability (201T; first compound 0.2 µM) was 0.159.
